ChEMBL document CHEMBL1153893, “5,6-Dihydro-1H-pyridin-2-ones as potent inhibitors of HCV NS5B polymerase” (Bioorg Med Chem Lett, 2009)

Legend:
[1] = Cytotoxicity against human Huh7/C24 after 72 hrs; format: cell-based, Huh-7; settings: Huh7/C24 cells
[2] = Metabolic stability in human liver microsomes assessed as compound remaining at 1 uM after 60 mins; format: ADME, Microsome; settings: read-out: Stability
[3] = Metabolic stability in human liver microsomes assessed as half life; format: ADME, Microsome
Hepatitis C virus [4] = experiment: Antiviral activity against HCV 1b infected in human Huh7/C24 after 72 hrs; format: functional, organism-based, Hepacivirus hominis; settings: genotype 1b, Huh-7, 72 h
Hepatitis C virus [5] = experiment: Inhibition of HCV 1b NS5B polymerase by Microbeta scintillation counter; design: species or system Hepatitis C virus subtype 1b
[6] = Inhibition of HCV 1a isolate H77 NS5B polymerase by Microbeta scintillation counter; design: species or system Hepatitis C virus subtype 1a

remaining at 1 h, 1 µM [2] [%] | half-life [3] [min] | EC50 (Hepatitis C virus [4]) [nM] | IC50 [6] [nM] | SMILES | CC50 at 72 h [1] [nM] | IC50 (Hepatitis C virus [5]) [nM]
85 | > 60 | 4800 |  | CS(=O)(=O)Nc1ccc2c(c1)S(=O)(=O)N=C(C1=C(O)[C@H]3CCC[C@H]3N(Cc3ccc(C(F)(F)F)cc3)C1=O)N2 | > 33000 | 620
 | 23 | 32 | 51 | CC(C)CCN1C(=O)C(C2=NS(=O)(=O)c3cc(NS(C)(=O)=O)ccc3N2)=C(O)[C@H]2CCC[C@H]21 | > 1000 | < 10
99 | > 60 | 940 |  | CS(=O)(=O)Nc1ccc2c(c1)S(=O)(=O)N=C(C1=C(O)[C@H]3CCC[C@H]3N(CC3CC3)C1=O)N2 | > 33000 | 210
 | 16 | 9 | < 25 | CC(C)(C)CCN1C(=O)C(C2=NS(=O)(=O)c3cc(NS(C)(=O)=O)ccc3N2)=C(O)[C@H]2CCC[C@H]21 | > 1000 | < 10
 | 25 | 1500 |  | CS(=O)(=O)Nc1ccc2c(c1)S(=O)(=O)N=C(C1=C(O)C3CCCC3N(CCc3ccccc3)C1=O)N2 (racemic) | > 33000 | 570
 |  |  |  | CN1C(=O)C(C2=NS(=O)(=O)c3cc(NS(C)(=O)=O)ccc3N2)=C(O)C2CCCC21 (racemic) |  | 9100
 |  | 2100 |  | CCN1C(=O)C(C2=NS(=O)(=O)c3cc(NS(C)(=O)=O)ccc3N2)=C(O)C2CCCC21 (racemic) | > 33000 | 950
97 | > 60 |  |  | CN(C)CCN1C(=O)C(C2=NS(=O)(=O)c3cc(NS(C)(=O)=O)ccc3N2)=C(O)C2CCCC21 (racemic) |  | 6800
 |  | 3200 |  | CS(=O)(=O)Nc1ccc2c(c1)S(=O)(=O)N=C(C1=C(O)C3CCCCC3N(C3CCCCC3)C1=O)N2 (racemic) | > 33000 | 910
 | 25 | 120 | 51 | CS(=O)(=O)Nc1ccc2c(c1)S(=O)(=O)N=C(C1=C(O)C3CCCC3N(CCC3CC3)C1=O)N2 (racemic) | > 33000 | 35
 |  | 4300 |  | CS(=O)(=O)Nc1ccc2c(c1)S(=O)(=O)N=C(C1=C(O)C3CCCC3N(C3CCCCC3)C1=O)N2 (racemic) | > 10000 | 730
 | 50 | 100 | 99 | CS(=O)(=O)Nc1ccc2c(c1)S(=O)(=O)N=C(C1=C(O)C3CCCC3N(Cc3ccccc3)C1=O)N2 (racemic) | > 33000 | 46
 | 51 | 170 | 130 | CS(=O)(=O)Nc1ccc2c(c1)S(=O)(=O)N=C(C1=C(O)C3CCCC3N(Cc3cccc(F)c3)C1=O)N2 (racemic) | > 33000 | 20
 | 4 | 700 |  | CS(=O)(=O)Nc1ccc2c(c1)S(=O)(=O)N=C(C1=C(O)C3CCCC3N(CC3CCC3)C1=O)N2 (racemic) | > 33000 | 51
 | 27 | 22 | 73 | CC(C)(C)CCN1C(=O)C(C2=NS(=O)(=O)c3cc(NS(C)(=O)=O)ccc3N2)=C(O)C2CCCCCC21 (racemic) | > 10000 | 39
 |  |  |  | CC(C)(C)CCN1C(=O)C(C2=NS(=O)(=O)c3cc(NS(C)(=O)=O)ccc3N2)=C(O)C2CCCCCCC21 (racemic) |  | 6500
 |  |  |  | CS(=O)(=O)Nc1ccc2c(c1)S(=O)(=O)N=C(C1=C(O)C3CCCC3N(c3ccccc3)C1=O)N2 (racemic) |  | 3500
 |  | 13400 |  | CC(C)N1C(=O)C(C2=NS(=O)(=O)c3cc(NS(C)(=O)=O)ccc3N2)=C(O)C2CCCC21 (racemic) | > 33000 | 780
 |  |  |  | CS(=O)(=O)Nc1ccc2c(c1)S(=O)(=O)N=C(C1=C(O)C3CCCC3N(C3CCCC3)C1=O)N2 (racemic) |  | 3400
